What was measured:
Assay in all cases: relative viability (nuclei count vs DMSO), 5 days (fraction); higher = more cells survive
XMD8-85 + Phenformin = compound: CN1CCN(CC1)C2=CC(=C(C=C2)NC3=NC=C4C(=N3)N(C5=CC=CC=C5C(=O)N4C)C)OC [XMD8-85] + N=C(N)NC(=N)NCCc1ccccc1 [Phenformin] (partner 250 µM)
Summary of the method: (§1)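 Relative viability was taken as the ratio of nuclei in treated wells to nuclei in vehicle wells. Lung cancer cell lines in 1536-well plates received compounds by pin tool one day after seeding, either one drug alone or a fixed anchor-drug dose plus five library-drug doses (not always all listed) in √10 steps. Nuclei were counted on 4× images after 5 days of treatment, and values are medians of duplicate plates.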

4EGI-1 + Vorinostat = compound: O=C(O)C(Cc1ccccc1[N+](=O)[O-])=NNc1nc(-c2ccc(Cl)c(Cl)c2)cs1 (mixture of isomers) [4EGI-1] + O=C(CCCCCCC(=O)Nc1ccccc1)NO [Vorinostat] (partner 1 µM)
Summary of the method: as §1

4EGI-1 + Lapatinib = compound: O=C(O)C(Cc1ccccc1[N+](=O)[O-])=NNc1nc(-c2ccc(Cl)c(Cl)c2)cs1 (mixture of isomers) [4EGI-1] + CS(=O)(=O)CCNCc1ccc(-c2ccc3ncnc(Nc4ccc(OCc5cccc(F)c5)c(Cl)c4)c3c2)o1 [Lapatinib] (partner 2 µM)
Summary of the method: as §1

XMD8-85 + Vorinostat = compound: CN1CCN(CC1)C2=CC(=C(C=C2)NC3=NC=C4C(=N3)N(C5=CC=CC=C5C(=O)N4C)C)OC [XMD8-85] + O=C(CCCCCCC(=O)Nc1ccccc1)NO [Vorinostat] (partner 1 µM)
Summary of the method: as §1

Row | Cell Line | relative viability (XMD8-85 + Phenformin; first compound 0.08 µM) | relative viability (XMD8-85 + Phenformin; first compound 0.253 µM) | relative viability (XMD8-85 + Phenformin; first compound 0.8 µM) | relative viability (XMD8-85 + Phenformin; first compound 2.53 µM) | relative viability (XMD8-85 + Phenformin; first compound 8 µM) | relative viability (4EGI-1 + Vorinostat; first compound 0.5 µM) | relative viability (4EGI-1 + Vorinostat; first compound 1.581 µM) | relative viability (4EGI-1 + Vorinostat; first compound 5 µM) | relative viability (4EGI-1 + Vorinostat; first compound 15.81 µM) | relative viability (4EGI-1 + Vorinostat; first compound 50 µM) | relative viability (4EGI-1 + Lapatinib; first compound 0.5 µM) | relative viability (4EGI-1 + Lapatinib; first compound 1.581 µM) | relative viability (4EGI-1 + Lapatinib; first compound 5 µM) | relative viability (4EGI-1 + Lapatinib; first compound 15.81 µM) | relative viability (4EGI-1 + Lapatinib; first compound 50 µM) | relative viability (XMD8-85 + Vorinostat; first compound 0.08 µM) | relative viability (XMD8-85 + Vorinostat; first compound 0.253 µM) | relative viability (XMD8-85 + Vorinostat; first compound 0.8 µM) | relative viability (XMD8-85 + Vorinostat; first compound 2.53 µM) | relative viability (XMD8-85 + Vorinostat; first compound 8 µM)
1 | NCI-H1755 | 0.608 | 0.65 | 0.429 | 0.581 | 0.495 | 0.818 | 0.749 | 0.891 | 0.853 | 0.626 | 1.06 | 1.01 | 0.967 | 0.883 | 0.284 | 0.8 | 0.799 | 0.695 | 0.761 | 0.692
2 | NCI-H1793 | 0.402 | 0.409 | 0.38 | 0.375 | 0.317 | 1.03 | 0.823 | 0.999 | 0.516 | 0.353 | 0.637 | 0.886 | 0.556 | 0.814 | 0.402 |  | 0.665 | 0.63 | 0.916 | 0.497
3 | NCI-H1915 | 0.359 | 0.349 | 0.377 | 0.354 | 0.348 | 0.536 | 0.36 | 0.599 | 0.542 | 0.387 | 0.99 | 0.747 | 0.954 | 1.03 | 0.679 | 0.556 | 0.546 | 0.485 | 0.5 | 0.476
4 | NCI-H1944 | 0.186 | 0.195 | 0.228 | 0.207 | 0.151 | 0.611 |  | 0.603 | 0.489 | 0.418 | 0.816 |  | 0.776 | 0.745 | 0.456 | 0.581 |  | 0.544 | 0.594 | 0.493
5 | NCI-H1975 | 0.402 | 0.409 | 0.446 | 0.464 | 0.312 | 0.79 | 0.679 | 0.754 | 0.7 | 0.357 | 1.05 | 0.916 | 0.916 | 0.93 | 0.287 | 0.708 | 0.691 | 0.706 | 0.693 | 0.473
6 | NCI-H1993 | 0.565 | 0.64 | 0.512 | 0.436 | 0.495 | 1.04 | 0.678 | 0.778 | 0.524 | 0.349 | 0.945 | 0.718 | 0.838 | 0.693 | 0.767 | 0.559 | 0.783 | 0.839 | 0.825 | 0.766
7 | NCI-H2009 | 0.496 | 0.504 | 0.496 | 0.42 | 0.306 | 0.798 | 0.701 | 0.822 | 0.736 | 0.375 | 1.06 | 0.879 | 0.962 | 0.744 | 0.177 | 0.716 | 0.774 |  | 0.621 | 
8 | NCI-H2023 | 0.347 | 0.398 | 0.422 | 0.355 | 0.327 | 0.91 |  | 0.722 | 0.138 | 0.0836 | 1.37 |  | 0.964 | 0.217 | 0.0883 | 0.405 | 0.835 |  | 0.665 | 0.475
9 | NCI-H2085 | 0.805 | 0.734 | 0.752 | 0.626 | 0.516 | 0.922 | 0.815 | 0.823 | 0.598 | 0.295 | 0.857 | 0.769 | 0.807 | 0.586 | 0.357 | 0.774 | 0.812 | 0.762 | 0.756 | 0.546
10 | NCI-H2087 | 0.495 | 0.441 | 0.562 | 0.396 | 0.389 | 0.694 | 0.958 | 0.724 | 0.995 | 0.343 | 1.11 | 0.934 | 1.07 | 0.911 | 0.222 | 0.668 | 0.967 | 0.806 | 0.708 | 0.456
11 | NCI-H2126 | 0.524 | 0.528 | 0.525 | 0.543 | 0.455 | 0.756 | 0.773 | 0.819 | 0.539 | 0.646 | 0.832 | 0.836 | 0.76 | 0.736 | 0.643 | 0.772 |  | 0.795 |  | 0.553
12 | NCI-H2170 | 0.4 | 0.431 | 0.447 | 0.41 | 0.366 | 0.936 | 0.749 | 0.842 | 0.699 | 0.585 | 0.32 | 0.266 | 0.289 | 0.264 | 0.235 | 0.914 | 0.8 | 0.792 | 0.877 | 0.715
13 | NCI-H2228 | 0.235 | 0.293 | 0.34 | 0.334 | 0.261 | 0.749 | 0.609 | 0.588 | 0.539 | 0.123 | 1.36 | 1.1 | 1.03 | 0.803 | 0.172 | 0.523 | 0.59 | 0.585 | 0.842 | 0.392
14 | NCI-H2347 | 0.357 | 0.382 | 0.388 | 0.393 |  | 0.724 | 0.59 | 0.689 | 0.589 | 0.36 | 0.898 | 0.746 | 0.909 | 0.855 | 0.844 | 0.603 | 0.564 | 0.59 | 0.533 | 0.504
15 | NCI-H2405 | 0.391 | 0.391 | 0.366 | 0.381 | 0.228 | 1.07 |  | 1.02 | 1.01 | 0.35 | 1.27 | 0.801 | 1.23 | 1.09 | 0.685 | 0.993 | 0.992 | 1.08 | 1.06 | 0.549
16 | NCI-H3122 | 0.388 | 0.383 | 0.389 | 0.373 | 0.32 | 1.04 | 1.11 | 1.03 | 1.11 | 0.773 | 1.05 | 0.922 | 1.02 | 0.955 | 0.578 | 1.02 | 1.17 | 1.03 | 1.08 | 1.38
17 | PC-3 [JPC-3] | 0.431 | 0.446 | 0.467 | 0.537 | 0.514 | 0.753 |  | 0.867 | 0.418 | 0.307 | 0.518 | 0.416 | 0.443 |  | 0.39 | 0.963 | 0.875 | 0.68 | 0.912 | 0.465

— the supplement of paper PMC10307832
